Measurements from patent US20140113898A1, “BISARYLSULFONE AND DIALKYLARYLSULFONE COMPOUNDS AS CALCIUM CHANNEL BLOCKERS” (Zalicus Pharmaceuticals Ltd., priority 2010, published 2014).
pIC50: −log10 of the molar value.

These molecules were tested against T1, CaV2.2 (Homo sapiens, UniProt Q00975) (assay: High-throughput CaV2.2/Kir2.3 FLIPR fluorescent assay). Settings: Table 4; Fluo-4 FLIPR; closed or inactivated state not stated; read-out: FLIPR data CaV2.2.
T1 construct: expressed in transfected cells; host or cells: unnamed doxycycline-inducible cell line
Type: cell-based
In short: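 IC50 was derived by logistic fitting of the FLIPR Fluo-4 signal recorded over 3 min after a 130 mM KCl stimulus. Before stimulation, cells (channel expression induced with doxycycline, 29 °C on assay day) were kept in pH 7.4 buffer with 2 mM KCl for the closed-state format or 12.5 mM KCl for the inactivated-state format.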

T1 sequence (Q00975 whole entry): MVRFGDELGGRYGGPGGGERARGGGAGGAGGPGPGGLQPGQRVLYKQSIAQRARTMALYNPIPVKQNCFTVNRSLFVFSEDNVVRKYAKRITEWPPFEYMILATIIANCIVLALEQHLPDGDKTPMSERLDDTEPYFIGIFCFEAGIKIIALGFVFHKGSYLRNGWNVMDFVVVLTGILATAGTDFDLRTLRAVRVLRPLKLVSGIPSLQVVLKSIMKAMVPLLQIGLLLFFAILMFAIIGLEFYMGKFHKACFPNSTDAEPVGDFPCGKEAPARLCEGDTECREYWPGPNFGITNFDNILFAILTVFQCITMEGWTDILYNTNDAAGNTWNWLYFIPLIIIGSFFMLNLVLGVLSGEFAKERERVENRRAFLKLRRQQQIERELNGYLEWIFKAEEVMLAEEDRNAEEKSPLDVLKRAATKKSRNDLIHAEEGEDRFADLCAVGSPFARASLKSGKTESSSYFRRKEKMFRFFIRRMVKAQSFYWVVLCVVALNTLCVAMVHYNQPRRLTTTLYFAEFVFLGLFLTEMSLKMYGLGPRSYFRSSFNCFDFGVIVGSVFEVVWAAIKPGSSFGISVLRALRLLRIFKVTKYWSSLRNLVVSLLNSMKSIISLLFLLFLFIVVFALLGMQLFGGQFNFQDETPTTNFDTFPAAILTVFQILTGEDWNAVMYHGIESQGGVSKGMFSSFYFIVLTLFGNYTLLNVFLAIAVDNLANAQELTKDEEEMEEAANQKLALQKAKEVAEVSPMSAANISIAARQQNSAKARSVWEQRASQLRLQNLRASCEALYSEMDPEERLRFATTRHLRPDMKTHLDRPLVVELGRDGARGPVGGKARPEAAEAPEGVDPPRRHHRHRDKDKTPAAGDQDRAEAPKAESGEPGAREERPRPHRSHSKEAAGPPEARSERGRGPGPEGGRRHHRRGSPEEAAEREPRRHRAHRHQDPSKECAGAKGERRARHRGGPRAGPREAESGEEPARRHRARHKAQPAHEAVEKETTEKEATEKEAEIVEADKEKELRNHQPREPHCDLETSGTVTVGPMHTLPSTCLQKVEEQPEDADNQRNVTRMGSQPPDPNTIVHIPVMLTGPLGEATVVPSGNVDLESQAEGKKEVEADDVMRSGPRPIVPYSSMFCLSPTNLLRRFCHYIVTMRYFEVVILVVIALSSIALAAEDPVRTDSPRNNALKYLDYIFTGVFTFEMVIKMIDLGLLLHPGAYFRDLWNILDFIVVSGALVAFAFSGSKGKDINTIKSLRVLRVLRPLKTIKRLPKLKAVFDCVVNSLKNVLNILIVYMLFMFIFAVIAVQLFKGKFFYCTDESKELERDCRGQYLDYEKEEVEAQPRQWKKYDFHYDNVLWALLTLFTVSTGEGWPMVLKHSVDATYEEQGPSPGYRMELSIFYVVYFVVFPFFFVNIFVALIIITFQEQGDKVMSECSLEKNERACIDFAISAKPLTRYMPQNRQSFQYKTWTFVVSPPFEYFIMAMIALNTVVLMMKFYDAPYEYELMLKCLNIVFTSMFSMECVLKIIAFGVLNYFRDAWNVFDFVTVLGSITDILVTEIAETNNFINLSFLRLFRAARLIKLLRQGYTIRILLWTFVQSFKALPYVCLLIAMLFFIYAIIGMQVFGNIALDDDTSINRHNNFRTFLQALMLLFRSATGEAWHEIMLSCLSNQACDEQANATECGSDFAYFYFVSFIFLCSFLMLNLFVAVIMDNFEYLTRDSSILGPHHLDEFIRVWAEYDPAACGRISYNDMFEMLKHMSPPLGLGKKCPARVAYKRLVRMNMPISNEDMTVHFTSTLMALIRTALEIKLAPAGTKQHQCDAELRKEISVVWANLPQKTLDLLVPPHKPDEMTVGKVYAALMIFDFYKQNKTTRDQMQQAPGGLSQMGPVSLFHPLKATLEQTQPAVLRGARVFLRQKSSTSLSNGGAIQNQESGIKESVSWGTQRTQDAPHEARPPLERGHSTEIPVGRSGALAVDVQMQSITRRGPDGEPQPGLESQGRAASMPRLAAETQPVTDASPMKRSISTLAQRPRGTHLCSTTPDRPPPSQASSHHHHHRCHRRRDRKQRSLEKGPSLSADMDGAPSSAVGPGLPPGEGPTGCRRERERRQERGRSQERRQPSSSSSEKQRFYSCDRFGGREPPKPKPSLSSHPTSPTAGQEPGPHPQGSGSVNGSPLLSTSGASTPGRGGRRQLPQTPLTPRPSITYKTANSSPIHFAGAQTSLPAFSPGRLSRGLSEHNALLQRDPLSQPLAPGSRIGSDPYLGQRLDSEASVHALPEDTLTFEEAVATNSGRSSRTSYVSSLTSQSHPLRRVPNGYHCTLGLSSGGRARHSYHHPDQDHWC
T1 sequence (P54284 whole entry partner): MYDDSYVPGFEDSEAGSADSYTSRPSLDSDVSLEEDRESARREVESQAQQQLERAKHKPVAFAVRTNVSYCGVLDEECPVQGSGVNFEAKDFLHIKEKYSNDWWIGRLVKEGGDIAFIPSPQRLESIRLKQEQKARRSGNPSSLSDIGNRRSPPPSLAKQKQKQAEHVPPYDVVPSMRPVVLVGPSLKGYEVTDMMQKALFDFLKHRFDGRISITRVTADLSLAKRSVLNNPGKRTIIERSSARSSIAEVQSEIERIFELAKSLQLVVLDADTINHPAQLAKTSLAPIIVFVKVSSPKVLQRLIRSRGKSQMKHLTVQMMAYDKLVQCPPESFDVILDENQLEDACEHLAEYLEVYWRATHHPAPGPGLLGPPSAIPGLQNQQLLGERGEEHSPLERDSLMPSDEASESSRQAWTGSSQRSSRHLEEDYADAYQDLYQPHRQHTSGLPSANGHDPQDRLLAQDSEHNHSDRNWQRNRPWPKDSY
T1 sequence (P54289 25-946 partner limits assumed): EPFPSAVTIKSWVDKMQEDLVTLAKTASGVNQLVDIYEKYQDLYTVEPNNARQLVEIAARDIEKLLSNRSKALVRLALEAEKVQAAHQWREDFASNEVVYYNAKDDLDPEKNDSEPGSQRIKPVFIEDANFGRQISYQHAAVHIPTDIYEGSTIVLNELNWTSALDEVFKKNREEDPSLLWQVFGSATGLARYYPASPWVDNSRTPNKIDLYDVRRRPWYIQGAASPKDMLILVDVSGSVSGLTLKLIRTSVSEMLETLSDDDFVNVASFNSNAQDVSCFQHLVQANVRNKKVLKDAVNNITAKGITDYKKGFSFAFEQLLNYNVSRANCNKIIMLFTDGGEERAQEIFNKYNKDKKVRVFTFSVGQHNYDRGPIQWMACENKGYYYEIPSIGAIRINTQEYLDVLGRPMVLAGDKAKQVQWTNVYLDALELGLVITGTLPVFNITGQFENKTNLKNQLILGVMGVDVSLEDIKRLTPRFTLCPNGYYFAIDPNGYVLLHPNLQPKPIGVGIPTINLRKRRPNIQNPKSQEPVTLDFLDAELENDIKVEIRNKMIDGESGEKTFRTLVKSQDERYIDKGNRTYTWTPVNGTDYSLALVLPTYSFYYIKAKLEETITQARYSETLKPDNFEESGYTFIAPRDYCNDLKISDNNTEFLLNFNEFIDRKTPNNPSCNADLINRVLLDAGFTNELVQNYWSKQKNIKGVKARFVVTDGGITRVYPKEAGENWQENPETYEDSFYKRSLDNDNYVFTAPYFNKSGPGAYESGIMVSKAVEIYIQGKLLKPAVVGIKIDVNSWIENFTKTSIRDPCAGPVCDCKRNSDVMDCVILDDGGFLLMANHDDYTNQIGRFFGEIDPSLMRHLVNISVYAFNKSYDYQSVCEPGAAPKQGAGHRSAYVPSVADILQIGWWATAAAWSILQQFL
T1 sequence (P54289 947-1103 partner limits assumed): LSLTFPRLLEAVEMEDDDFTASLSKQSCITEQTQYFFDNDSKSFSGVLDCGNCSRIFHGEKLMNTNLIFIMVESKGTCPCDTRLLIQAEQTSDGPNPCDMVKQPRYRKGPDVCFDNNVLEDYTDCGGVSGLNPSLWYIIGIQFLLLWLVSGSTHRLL

| pIC50 | SMILES |
| --- | --- |
| 5.25 | NC1(C(=O)NCc2ccc(S(=O)(=O)c3cccc(C(F)(F)F)c3)cc2)CC1 [Compound 65, 1-amino-N-(4-((3-(trifluoromethyl)phenyl)sulfonyl)benzyl)cyclopropanecarboxamide] |
| 5.98 | COc1cc(C(=O)NCc2ccccc2S(=O)(=O)c2cccc(C(F)(F)F)c2)cc(Cl)n1 [Compound 49, 2-chloro-6-methoxy-N-(2-((3-(trifluoromethyl)phenyl)sulfonyl)benzyl)isonicotinamide] |

Same assay, conditions: Table 5; Fluo-4 FLIPR; closed or inactivated state not stated; read-out: FLIPR data CaV2.2

| SMILES | pIC50 |
| --- | --- |
| CC(C)(CCNC(=O)[C@H]1CCCCN1)S(=O)(=O)c1cccc(C(F)(F)F)c1 [Compound 195, (R)-N-(3-methyl-3-((3-(trifluoromethyl)phenyl)sulfonyl)butyl)piperidine-2-carboxamide] | 5.51 |
| CC1(C(=O)NCCC(C)(C)S(=O)(=O)c2cccc(C(F)(F)F)c2)CCCCN1 (stereo not shown) [Compound 222, 2-methyl-N-(3-methyl-3-((3-(trifluoromethyl)phenyl)sulfonyl)butyl)piperidine-2-carboxamide] | 5.42 |

The next lines start with the values.

| pIC50 | SMILES |
| --- | --- |
| 5.23 | CC(C)(CCNC(=O)C1(N)CCC1)S(=O)(=O)c1cccc(C(F)(F)F)c1 [Compound 203, 1-amino-N-(3-methyl-3-((3-(trifluoromethyl)phenyl)sulfonyl)butyl)cyclobutanecarboxamide] |
| 6.36 | COc1cc(OC)cc(C(O)CNC(=O)C(C)(C)S(=O)(=O)c2cccc(C(F)(F)F)c2)c1 (stereo not shown) [Compound 142, N-(2-(3,5-dimethoxyphenyl)-2-hydroxyethyl)-2-methyl-2-((3-(trifluoromethyl)phenyl)sulfonyl)propanamide] |
| 5.08 | CC(C)(CC(=O)NCCC(F)(F)F)S(=O)(=O)c1cccc(C(F)(F)F)c1 [Compound 151, 3-methyl-3-((3-(trifluoromethyl)phenyl)sulfonyl)-N-(3,3,3-trifluoropropyl)butanamide] |
| 5.04 | Cc1cncc(C(=O)NCC(C)(C)S(=O)(=O)c2cccc(C(F)(F)F)c2)c1 [Compound 173, 5-methyl-N-(2-methyl-2-((3-(trifluoromethyl)phenyl)sulfonyl)propyl)nicotinamide] |
| 5.81 | CC(C)(CCNC(=O)c1ccc(C(F)(F)F)nc1S(C)(=O)=O)S(=O)(=O)c1cccc(C(F)(F)F)c1 [Compound 183, N-(3-methyl-3-((3-(trifluoromethyl)phenyl)sulfonyl)butyl)-2-(methylsulfonyl)-6-(trifluoromethyl)nicotinamide] |
| 5.65 | CC(C)(C)C(=O)Nc1ncccc1C(=O)NCC(C)(C)S(=O)(=O)c1cccc(C(F)(F)F)c1 [Compound 163, N-(2-methyl-2-((3-(trifluoromethyl)phenyl)sulfonyl)propyl)-2-pivalamidonicotinamide] |
